Entries after “also recorded” stand apart in the source; their conditions may differ.

Assay [1] deals with T1, HA-GPER (recombinant GPER) (Homo sapiens, UniProt Q99527).
T1 construct: expressed in transfected cells
Description: Surface receptor immunostaining / HA immunoblot in HA-GPER cells (Example 1). It is filed as cell-based. The following applies: 100 uM, 16 hr. Background: In western blotting, separated proteins are transferred to a membrane and probed.

In the next assay the target is T2, native GPER (Homo sapiens, UniProt Q99527).
T2 construct: Similar results were obtained for native GPER in her2+ and TNBC breast cancer cells; endogenous in cells; host or cells: SKBR3 and HCC-1806 human breast cancer cells
Description: Surface GPER immunostaining in human breast cancer cells (SKBR3, HCC-1806). It counts as cell-based. The procedure: FIG. 4. PROTAC prototype Ul-EP001 reduces surface GPER. Similar results were obtained for native GPER in her2+ and TNBC breast cancer cells.
FIG. 18. […] Structure (A) and NMR spectrum (B) of UI-EP001. Human SKBR3 (Her2+) and HCC-1806 (TNBC) breast cancer cells were exposed to vehicle (untreated) or 100 µM of partial-PROTAC or E2p-PROTAC, Ul-EP001 for 16 hours. Cells were immunostained with GPER antibodies for 30 minutes and surface GPER was detected using goat anti-rabbit Alexa 594 IgG (red). Nuclei were countertained with DAPI (blue). (C).HA-GPER or HA-β1AR cells were treated with Ul-EP001 for the indicated times and immunoblotted with HA antibody (D) or immunostained for surface receptor (E). Total corrected red fluorescence (red) (TCRF) of treated and untreated HA-GPER or HA-β1AR cells was measured by subtracting cell background. […] Data not shown, no difference in surface GPER expression is measured in cells similarly treated with free 17β-E2.
To screen GPER-PROTACs, a GPER binding assay that measures a high-affinity (Kd= 2.7 nm), limited capacity, displaceable, single binding site specific for estrogens in plasma membranes of human SKBR3 breast cancer cells that express GPER but lack nuclear ER may be used (Thomas et al., 2005). GPER undergoes an uncommon mechanism of endocyosis that requires neither receptor phosphorylation, interaction with β--arrestin nor lysosomal activity. […]

The next assay has as its target T3, ERα (Homo sapiens, UniProt P03372).
T3 sequence (P03372 1-595): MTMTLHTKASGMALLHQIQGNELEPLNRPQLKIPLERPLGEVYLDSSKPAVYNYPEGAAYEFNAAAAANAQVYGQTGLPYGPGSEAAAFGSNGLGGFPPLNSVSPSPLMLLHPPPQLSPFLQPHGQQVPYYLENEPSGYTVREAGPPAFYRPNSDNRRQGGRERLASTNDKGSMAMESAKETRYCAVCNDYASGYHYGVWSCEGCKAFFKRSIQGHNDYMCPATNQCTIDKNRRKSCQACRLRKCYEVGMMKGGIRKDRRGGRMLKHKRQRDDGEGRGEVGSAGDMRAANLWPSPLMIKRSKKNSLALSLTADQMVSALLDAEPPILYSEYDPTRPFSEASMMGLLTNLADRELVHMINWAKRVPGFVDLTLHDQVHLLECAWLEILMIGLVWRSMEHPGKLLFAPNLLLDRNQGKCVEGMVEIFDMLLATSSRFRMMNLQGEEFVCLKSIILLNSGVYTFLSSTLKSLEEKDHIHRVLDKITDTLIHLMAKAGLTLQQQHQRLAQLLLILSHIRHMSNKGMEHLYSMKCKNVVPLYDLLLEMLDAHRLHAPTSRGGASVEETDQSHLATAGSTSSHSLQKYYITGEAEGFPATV
Description: Immunostaining of endogenous receptors in MCF-7 cells. Conditions: MCF-7, 1 hour.

The next assay deals with GPER (Homo sapiens, UniProt Q99527). Briefly: Immunostaining of surface and intracellular GPER in SKBR3 cells. Conditions: SKBR3, 100 uM, 1 hour.

Consider `Cc1ncsc1-c1ccc(CNC(=O)C2CC(O)CN2C(=O)C(NC(=O)COCCOCCOCCOCC(=O)OC2CCC3C4CCc5cc(O)ccc5C4CCC23C)C(C)(C)C)cc1` (stereo not shown) [UI-EP001], for which the “surface recombinant GPER / HA-GPER expression” value in assay [1] is recorded as “causes downmodulation of surface recombinant GPER; also recorded: Significant degradation of GPER was observed”. On native GPER, the “expression of native GPER” value was “downmodulates the expression of native GPER”. The “nuclear ERα expression” value at ERα is reported as “Clear site-specific reduction”. Further, the “plasma membrane and total GPER” value at GPER was “reduced plasma membrane and total GPER”.

The record behind these values is US20230312639A1, “GPER PROTEOLYTIC TARGETING CHIMERAS” (University of Iowa Research Foundation, priority 2020, published 2023).
